Results on two molecules are retold here after patent EP4656185A1, “NOVEL MOLECULAR ASSEMBLY OF AXITINIB” (Scai Therapeutics Co., Ltd., priority 2024, dated 2025).

A short description of this series: Solubility (dissolution concentration) of axitinib polymorph at pH 1 and pH 2. It is filed as physicochemical. The protocol:
Experimental Example 4. Solubility of new axitinib polymorph (SCAI-Form)
Method for measuring solubility at pH 1: Stirred for 15 minutes at a concentration of 5 mg/mL, and then filtered, diluted 10 times with DW, and analyzed. (The value calculated as [measured value x 10] is described in the results)
Method for measuring solubility at pH 2: Stirred for 15 minutes at a concentration of 1 mg/mL, and then filtered, analyzed, and shown in Table 6.

Consider “6-[2-(methylcarbamoyl)phenylsulfanyl]-3-E-[2-(pyridin-2-yl)ethenyl]indazole [API]”, for which the “Dissolution concentration at pH 1” value (pH 1, stirred for 15 minutes at 5 mg/mL, filtered, diluted 10 times with DW, value = measured value x 10) turned out to be 2.661 mg/mL. Moreover, the “Dissolution concentration at pH 2” value (pH 2, stirred for 15 minutes at 1 mg/mL, filtered, analyzed) is reported as 0.073 mg/mL.

`CNC(=O)c1ccccc1Sc1ccc2c(/C=C/c3ccccn3)n[nH]c2c1` [SCAI-Form, axitinib]: the “solubility of SCAI-Form relative to API” value (comparison with Axitinib API, from Table 6 (pH 1 and pH 2)) is on record as “about twice higher”.
